Here are results for five molecules from patent publication US4232035A, “Carbamate pesticidal compounds compositions and methods of use” (priority 1975, dated 1980).

What all share (format): in vivo
Assay [1] has as its system bean aphid (Aphis fabae Scop.). Briefly: Bean Aphid Foliage Spray Test. Details: key: A: excellent control; B: partial control; C: no control. The settings on record: 500 parts per million foliage spray; 24 hour holding period. On the procedure: (§1) Suspensions of the test compounds were prepared by dissolving one gram of compound in 50 milliliters of acetone in which had been dissolved 0.1 gram (10 percent of the weight of compound) of an alkylphenoxy polyethoxyethanol surfactant, as an emulsifying or dispersing agent. The resulting solution was mixed into 150 milliliters of water to give roughly 200 milliliters of a suspension containing the compound in finely divided form. The thus-prepared stock suspension contained 0.5 percent by weight of compound. The test concentrations in parts per million by weight employed in the tests described hereinbelow were obtained by appropriate dilutions of the stock suspension with water. The test procedures were as follows:
Adults and nymphal stages of the bean aphid (Aphis fabae Scop.) reared on potted dwarf nasturtium plants at 65°-70° F. and 50-70 percent relative humidity, constituted the test insects. For testing purposes, the number of aphids per pot was standardized to 100-150 by trimming plants containing excess aphids.
The test compounds were formulated by diluting the stock suspension with water to give a suspension containing 500 parts of test compound per million parts of final formulation.
The potted plants (one pot per compound tested) infested with 100-150 aphids, were placed on a revolving turntable and sprayed with 100-110 milliliters of test compound formulation by use of a DeVilbiss spray gun set at 40 psig. air pressure. This application, which lasted 25 seconds, was sufficient to wet the plants to run-off. As a control, 100-110 milliliters of a water-acetone-emulsifier solution containing no test compound were also sprayed on infested plants. After spraying, the pots were placed on their sides on a sheet of white standard mimeograph paper which had been previously ruled to facilitate counting. Temperature and humidity in the test room during the 24 hour holding period were 65°-70° F. and 50-70 percent, respectively. Aphids which fell onto the paper and were unable to remain standing after being uprighted were considered dead. Aphids remaining on the plants were observed closely for movement and those which were unable to move the length of the body upon stimulation by prodding were considered dead. Percent mortality was recorded for various concentration levels.

Assay [2] concerns two-spotted mite (Tetranychus urticae Koch). Put plainly: Mite Foliage Spray Test. Details: key: A: excellent control; B: partial control; C: no control. The settings on record: 500 parts per million foliage spray; six days. On the procedure: as §1
Adults and nymphal stages of the two-spotted mite (Tetranychus urticae Koch), reared on Tendergreen bean plants at 80±5 percent relative humidity, were the test organisms. Infested leaves from a stock culture were placed on the primary leaves of two bean plants six to eight inches in height, growing in a two-and-a-half inch clay pot. 150-200 Mites, a sufficient number for testing, transferred from the excised leaves to the fresh plants in a period of twenty four hours. Following the twenty four hour transfer period, the excised leaves were removed from the infested plants. The test compounds were formulated by diluting the stock suspension with water to give a suspension containing 500 parts of test compound per million parts of final formulation. The potted plants (one pot per compound) were placed on a revolving turntable and sprayed with 100-110 milliliters of test compound formulation by use of a DeVilbiss spray gun set at 40 psig. air pressure. This application, which lasted 25 seconds, was sufficient to wet the plants to run-off. As a control, 100-110 milliliters of a water solution containing acetone and emulsifier in the same concentrations as the test compound formulation, but containing no test compound, were also sprayed on infested plants. The sprayed plants were held at 80±5 percent relative humidity for six days, after which a mortality count of motile forms was made. Microscopic examination for motile forms was made on the leaves of the test plants. Any individual which was capable of locomotion upon prodding was considered living.

The subject of assay [3] is house flies (Musca domestica, L.). Put plainly: Fly Bait Test. The settings on record: 500 parts per million bait in sugar solution; twenty four hours. Further details: key: A: excellent control; B: partial control; C: no control. On the procedure: as §1
Four to six day old adult house flies (Musca domestica, L.) reared according to the specifications of the Chemical Specialties Manufacturing Association (Blue Book, McNair-Dorland Co., N.Y. 1954; pages 243-244, 261) under controlled conditions of 80°±5° F. and 50±5 percent relative humidity, were the test insects. The flies were immobilized by anesthetizing with carbon dioxide and twenty five immobilized individuals, males and females, were transferred to a cage consisting of a standard food strainer about five inches in diameter which was inverted over a wrapping-paper-covered surface. The test compounds were formulated by diluting the stock suspension with a 10 percent (by weight) sugar solution to give a suspension containing 500 parts of test compound per million parts of final formulation, by weight. Ten milliliters of the test formulation were added to a souffle cup containing a one-inch square of an absorbent cotton pad. This bait cup was introduced and centered on the blotting paper under the food strainer prior to admitting the anesthetized flies. The caged flies were allowed to feed on the bait for twenty four hours, at a temperature of 80°±5° F. and the relative humidity of 50±5 percent.

Assay [4] relates to root-knot nematode (Meloidogyne incognita var. acrita). Put plainly: Nematode Test. Further details: key: 1: severe galling; equal to untreated control; 2: moderate galling; 3: light galling; 4: very light galling; 5: no galling. The settings on record: 10 ml of 500 parts per million formulation per jar of soil; cucumber indicator crop, approximately three weeks. On the procedure:
as §1
Infective migratory larvae of the root-knot nematode, (Meloidogyne incognita var. acrita) were reared in the greenhouse on roots of Rutgers variety tomato plant. Infected tomato plants were removed from the culture and the roots were chopped very finely. A small amount of inoculum from the roots was added to pint Mason jars containing approximately 180 cc of soil. The jars containing the inoculum and soil were capped and incubated for one week at room temperature. During this period eggs of the nematode hatched and the larvae forms migrated into the soil.
The test compounds were formulated by diluting the stock suspension with water to give a suspension containing 500 parts of test compound per million parts of final formulation. 10 milliliters of the test formulation was added to each of two jars for each dosage treated. As a control 10 milliliters of a water-acetone-emulsifier solution containing no test compound was also added to jars containing nematode larvae. The jars were capped and the contents thoroughly mixed on a kale mill for five minutes. The jars remained capped at room temperature for a period of 48 hours and the contents were then transferred to 3 inch pots. Subsequently, the pots were seeded to cucumber as an indicator crop and placed in the green house where they were cared for in the normal fashion for growing potted cucumber for approximately three weeks. These cucumber plants were then removed from the pots, the soil washed from the roots and the amount of galling visually rated.

In assay [5] the test system is southern armyworm (Prodenia eridania, (Cram.)). Briefly: Southern Armyworm Leaf Spray Test. Further details: key: A: excellent control; B: partial control; C: no control. The settings on record: 500 parts per million leaf spray; three days. On the procedure: as §1
Larvae of the southern armyworm (Prodenia eridania, (Cram.)), reared on Tendergreen bean plants at a temperature of 80°±5° F. and a relative humidity of 50±5 percent, constituted the test insects.
The test compounds were formulated by diluting the stock suspension with water to give a suspension containing 500 parts of test compound per million parts of final formulation. Potted Tendergreen bean plants of standard height and age were placed on a revolving turntable and sprayed with 100-110 milliliters of test compound formulation by use of a DeVilbiss spray gun set at 10 psig air pressure. This application, which lasted 25 seconds, was sufficient to wet plants to run-off. As a control, 100-110 milliliters of a water-acetone-emulsifier solution containing no test compound were also sprayed on infested plants. When dry, the paired leaves were separated and each one was placed in a 9 centimeter Petri dish lined with moistened filter paper. Five randomly selected larvae were introduced into each dish and the dishes were closed. The closed dishes were labeled and held at 80°-85° F. for three days. Although the larvae could easily consume the whole leaf within twenty-four hours, no more food was added. Larvae which were unable to move the length of the body, even upon stimulation by prodding, were considered dead. Percent mortality was recorded for various concentration levels.

In assay [6] the test system is Mexican bean beetle (Epilachna varivestis, Muls.). Briefly: Mexican Bean Beetle Leaf Spray Test. Further details: key: A: excellent control; B: partial control; C: no control. The following applies: 500 parts per million leaf spray; fourth instar larvae; three days. On the procedure: as §1
Fourth instar larvae of the Mexican bean beetle (Epilachna varivestis, Muls.), reared on Tendergreen bean plants at a temperature of 80°±5° F. and 50±5 percent relative humidity, were the test insects.
The test compounds were formulated by diluting the stock suspension with water to give a suspension containing 500 parts of test compound per million parts of final formulation. Potted Tendergreen bean plants of standard height and age were placed on a revolving turntable and sprayed with 100-110 milliliters of test compound formulation by use of a DeVilbiss spray gun set at 10 psig air pressure. This application, which lasted 25 seconds, was sufficient to wet plants to run-off. As a control, 100-110 milliliters of a water-acetone-emulsifier solution containing no test compound were also sprayed on infested plants. When dry, the paired leaves were separated and each was placed in a 9 centimeter Petri dish lined with moistened filter paper. Five randomly selected larvae were introduced into each dish, and the dishes were closed. The closed dishes were labeled and held at a temperature of 80°±5° F. for three days. Although the larvae could easily consume the leaf within 24 to 48 hours, no more food was added. Larvae which were unable to move the length of the body, even upon stimulation, were considered dead.

Structures are written as SMILES.

Regarding `CN(SSc1ccc(C(C)(C)C)cc1)C(=O)ON=C1SC(C)(C)C(=O)N1C`, in assay [1], the “Aphid, pesticidal activity rating” value is reported as “C”. The “Mite, pesticidal activity rating” value in assay [2] was “C”. For the same molecule, the “H. Fly, pesticidal activity rating” value in assay [3] was “C”. Further, the “Nematodes, nematocidal toxicity rating (galling)” value (from here on “Nematodes … (galling)”) in assay [4] came out at 1. Further, in assay [5], the “S. Armyworm, pesticidal activity rating” value is given as “A”. Further, in assay [6], the “M. Bean Beetle, pesticidal activity rating” value (“M. Bean Beetle” below) is reported as “A”.
Regarding `CCCCCCCCSSN(C)C(=O)ON=C1SCOC1C` (stereo not drawn), the “Aphid, pesticidal activity rating” value in assay [1] is listed as “A”. The “Mite, pesticidal activity rating” value in assay [2] is reported as “A”. Besides, in assay [3], the “H. Fly, pesticidal activity rating” value is “A”. Moreover, in assay [4], the “Nematodes … (galling)” value is given as 1. Moreover, the “S. Armyworm, pesticidal activity rating” value in assay [5] is given as “A”. The “M. Bean Beetle” value in assay [6] is listed as “A”.
For `CC(C)SSN(C)C(=O)ON=C1SC(C)(C)C(=O)N1C`, the “Aphid, pesticidal activity rating” value in assay [1] is “A”. For the same molecule, in assay [2], the “Mite, pesticidal activity rating” value is listed as “C”. For the same molecule, the “H. Fly, pesticidal activity rating” value in assay [3] was “A”. Moreover, the “Nematodes … (galling)” value in assay [4] is given as 1. The “S. Armyworm, pesticidal activity rating” value in assay [5] is given as “A”. In addition, the “M. Bean Beetle” value in assay [6] was “A”.
Regarding `CN(SSC1CCCCC1)C(=O)ON=C1SC(C)(C)C(=O)N1C`, the “Aphid, pesticidal activity rating” value in assay [1] is listed as “A”. Further, the “Mite, pesticidal activity rating” value in assay [2] is reported as “C”. Besides, the “H. Fly, pesticidal activity rating” value in assay [3] is recorded as “C”. The “Nematodes … (galling)” value in assay [4] is listed as 2. For the same molecule, the “S. Armyworm, pesticidal activity rating” value in assay [5] was “A”. In assay [6], the “M. Bean Beetle” value is given as “A”.
Turning to `CC1OCSC1=NOC(=O)N(C)SSc1ccc(Cl)cc1` (stereo not drawn), in assay [1], the “Aphid, pesticidal activity rating” value was “A”. Besides, the “Mite, pesticidal activity rating” value in assay [2] is listed as “A”. The “H. Fly, pesticidal activity rating” value in assay [3] is reported as “A”. The “Nematodes … (galling)” value in assay [4] is 1. For the same molecule, the “S. Armyworm, pesticidal activity rating” value in assay [5] is “A”. Moreover, the “M. Bean Beetle” value in assay [6] was “A”.
